In ChEMBL document CHEMBL1201862, “PubChem BioAssay data set” (2004):
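Results reflect a 48-hour exposure of cells in 96-well plates to compound at five concentrations. GI50 = concentration required for 50% inhibition of growth.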 Active and inactive are the calls of the source. Cut-off read from the data, not from the text of the source: active = GI50 up to about 1.1 µM and inactive = higher.

Tests used:
Assay in all cases: DTP human tumour cell line panel, 48 h
A549 = tested on: A549
RPMI-8226 = tested on: RPMI-8226
HOP-92 = tested on: HOP-92
KM12 = tested on: KM12
ACHN = tested on: ACHN
SW-620 = tested on: SW-620
HCT-116 = tested on: HCT-116
CCRF-CEM = tested on: CCRF-CEM
UACC-62 = tested on: UACC-62
HCT-15 = tested on: HCT-15
SN12C = tested on: SN12C
IGROV-1 = tested on: IGROV-1
M14 = tested on: M14
NCI-H23 = tested on: NCI-H23
MDA-MB-435 = tested on: MDA-MB-435
SK-MEL-5 = tested on: SK-MEL-5
MDA-MB-231 = tested on: MDA-MB-231
HOP-62 = tested on: HOP-62
OVCAR-4 = tested on: OVCAR-4

SMILES	GI50 (A549)	GI50 (RPMI-8226)	GI50 (HOP-92)	GI50 (KM12)	GI50 (ACHN)	GI50 (SW-620)	GI50 (HCT-116)	GI50 (CCRF-CEM)	GI50 (UACC-62)	GI50 (HCT-15) [µM]	GI50 (SN12C)	GI50 (IGROV-1)	GI50 (M14)	GI50 (NCI-H23)	GI50 (MDA-MB-435)	GI50 (SK-MEL-5)	GI50 (MDA-MB-231)	GI50 (HOP-62)	GI50 (OVCAR-4)
O=C(NCCc1ccccc1)C1C(=O)C(=O)N(CCc2ccccc2)C1=O (centres undefined)	> 100 µM (inactive)	> 100 µM (inactive)	> 100 µM (inactive)	> 100 µM (inactive)	> 100 µM (inactive)	> 100 µM (inactive)	> 100 µM (inactive)	> 100 µM (inactive)	> 100 µM (inactive)	> 100	> 100 µM (inactive)	> 100 µM (inactive)	> 100 µM (inactive)	> 100 µM (inactive)	–	–	–	–	–
CC(CO)(CO)Nc1ncnc2ccccc12	> 100 µM (inactive)	–	> 100 µM (inactive)	> 100 µM (inactive)	> 100 µM (inactive)	> 100 µM (inactive)	> 100 µM (inactive)	> 100 µM (inactive)	> 100 µM (inactive)	> 100	> 100 µM (inactive)	> 100 µM (inactive)	> 100 µM (inactive)	> 100 µM (inactive)	> 100 µM (inactive)	50.1 µM (inactive)	> 100 µM (inactive)	> 100 µM (inactive)	> 100 µM (inactive)
N#Cc1c(NC(=S)NC(=O)c2ccccc2)nc2c(c1-c1ccccc1)CCC2	> 100 µM (inactive)	> 100 µM (inactive)	–	> 100 µM (inactive)	> 100 µM (inactive)	> 100 µM (inactive)	> 100 µM (inactive)	> 100 µM (inactive)	> 100 µM (inactive)	> 100	78.2 µM (inactive)	> 100 µM (inactive)	> 100 µM (inactive)	> 100 µM (inactive)	> 100 µM (inactive)	73.3 µM (inactive)	43.9 µM (inactive)	> 100 µM (inactive)	> 100 µM (inactive)
C=CCn1c(-c2ccc(Cl)cc2)cs/c1=N\c1ccccc1OC	33 µM (inactive)	5.6 µM (inactive)	> 65 µM (inactive)	15.8 µM (inactive)	> 100 µM (inactive)	60 µM (inactive)	9.31 µM (inactive)	8.55 µM (inactive)	10.1 µM (inactive)	50	> 100 µM (inactive)	> 100 µM (inactive)	10.1 µM (inactive)	7.67 µM (inactive)	5.06 µM (inactive)	2.31 µM (inactive)	–	48.9 µM (inactive)	> 58.5 µM (inactive)
Cc1cc(C)c2c(O)cc(-c3ccc(F)cc3)nc2n1	44.6 µM (inactive)	24.8 µM (inactive)	29.9 µM (inactive)	20.7 µM (inactive)	39.7 µM (inactive)	34.4 µM (inactive)	–	26.7 µM (inactive)	33.7 µM (inactive)	47.1	50.7 µM (inactive)	32.4 µM (inactive)	45.7 µM (inactive)	38.6 µM (inactive)	–	–	63 µM (inactive)	> 100 µM (inactive)	17.6 µM (inactive)
O=C(NN=C1CCCCC1)NN=C1CCCCC1	–	–	–	> 100 µM (inactive)	–	> 100 µM (inactive)	> 100 µM (inactive)	> 100 µM (inactive)	> 100 µM (inactive)	> 100	> 100 µM (inactive)	> 100 µM (inactive)	> 100 µM (inactive)	> 100 µM (inactive)	> 100 µM (inactive)	> 100 µM (inactive)	> 100 µM (inactive)	> 100 µM (inactive)	> 100 µM (inactive)
Cc1cc(S(=O)(=O)Nc2nnc3ccccn23)c(S)cc1Cl	37.2 µM (inactive)	> 100 µM (inactive)	–	38.1 µM (inactive)	> 100 µM (inactive)	> 100 µM (inactive)	> 100 µM (inactive)	> 10 µM (inactive)	> 100 µM (inactive)	> 100	> 100 µM (inactive)	> 100 µM (inactive)	> 100 µM (inactive)	> 100 µM (inactive)	> 100 µM (inactive)	> 100 µM (inactive)	> 100 µM (inactive)	56.6 µM (inactive)	> 100 µM (inactive)
CCOC(=O)C1(C/C=C\CBr)CCCCCCC1=O (centres undefined)	> 100 µM (inactive)	–	–	> 100 µM (inactive)	> 100 µM (inactive)	> 100 µM (inactive)	> 100 µM (inactive)	> 100 µM (inactive)	> 100 µM (inactive)	> 100	> 100 µM (inactive)	> 100 µM (inactive)	> 100 µM (inactive)	> 100 µM (inactive)	> 100 µM (inactive)	> 100 µM (inactive)	> 100 µM (inactive)	> 100 µM (inactive)	> 100 µM (inactive)
